No end group written: not given here.
Legend:
S. aureus (5) = conditions: Table 6B
Experimental: (§1) All the strains (see below) used in minimal inhibitory concentration (MIC) assays (Ovchinnikov et al., 2017, Front Microbiol., 8, p774, doi:10.3389/fmicb.2017.00774) were grown in BHI medium (Oxoid) at 30° C. without shaking. The tested strains were obtained from the LMG collection. […] NisinZ and micrococcin P1 were purified from source. Synthesized peptides were solubilized to concentrations of 10.0-0.1 mg/ml in 0.1% (vol/vol) trifluoroacetic acid and stored at −20° C. until use. Garvicin KS is made up of 3 peptides:
(§2) Bacteriocin activity was determined using a microtitre plate assay. The plates were incubated at 30° C. for 8 h and the growth was measured spectrophotometrically at 600 nm (A600) with 15 min intervals using SPECTROstarNano (BMG LABTECH, Germany). The MIC was defined as the bacteriocin concentration that inhibited the growth of the indicator strain by at least 50% in 200 μl culture (i.e., 50% of the turbidity of the control culture without bacteriocin).

SP 4013 = assay: organism not typed; conditions: SP 4013 (S. pseudointermedius)
Experimental: as §1, §2

SP 4014 = assay: organism not typed; conditions: SP 4014 (S. pseudointermedius)
Experimental: as §1, §2

SP 4012 = assay: organism not typed; conditions: SP 4012 (S. pseudointermedius)
Experimental: as §1, §2

Sa3324 = assay: microbe, parasite or virus in culture; conditions: Sa3324 (S. aureus)
Experimental: as §1, §2

SH 4016 = assay: microbe, parasite or virus in culture; conditions: SH 4016 (S. haemolyticus)
Experimental: as §1, §2

Sa3323 = assay: microbe, parasite or virus in culture; conditions: Sa3323 (S. aureus)
Experimental: as §1, §2

SH 4015 = assay: microbe, parasite or virus in culture; conditions: SH 4015 (S. haemolyticus)
Experimental: as §1, §2

Sa 3242 = assay: microbe, parasite or virus in culture; conditions: Sa 3242 (S. aureus)
Experimental: as §1, §2

S. pseudointermedius (3) = conditions: S. pseudointermedius (3), Table 6B
Experimental: as §1, §2

KAVA = assay: MIC microtitre plate assay, pathogenic isolates; assay type: cell-based; conditions: KAVA
Experimental: The tested strains were obtained from the LMG collection. […] NisinZ and micrococcin P1 were purified from source. […] Garvicin KS is made up of 3 peptides:
Bacteriocin activity was determined using a microtitre plate assay. The plates were incubated at 30° C. for 8 h and the growth was measured spectrophotometrically at 600 nm (A600) with 15 min intervals using SPECTROstarNano (BMG LABTECH, Germany).

Row | Sequence | MIC (S. aureus (5)) | MIC (SP 4013) | MIC (SP 4014) | MIC (SP 4012) | MIC (Sa3324) | MIC (SH 4016) | MIC (Sa3323) | MIC (SH 4015) | MIC (Sa 3242) | MIC (S. pseudointermedius (3)) | MIC (KAVA)
1 | MKFKFNPTGTIVKKLTQYEIAWFKNKHGYYPWEIPRC [EntK1] | >25 µg/mL | – | – | – | – | – | – | – | – | – | –
2 | MLAKIKAMIKKFPNPYTLAAKLTTYEINWYKQQYGRYPWERPVA [EntEJ97] | – | 12.5 µg/mL | 12.5 µg/mL | 12.5 µg/mL | 12.5 µg/mL | 12.5 µg/mL | 6.25 µg/mL | 12.5 µg/mL | 6.25 µg/mL | 12.5 µg/mL | >50 µg/mL
